Experimental data taken from PMC11859184, “Synthesis and Evaluation of ^68Ga- and ^177Lu-Labeled [diF-Pro^14]Bombesin(6−14) Analogs for Detection and Radioligand Therapy of Gastrin-Releasing Peptide Receptor-Expressing Cancer” (Pharmaceuticals, 2025).
Where two headings read alike, the source gives them in different places.

Assay: Ex vivo biodistribution of 177Lu-labeled ligands in PC-3 tumor-bearing mice
Conditions: mouse; for tissue to tissue ratio at 1 h / tissue to tissue ratio at 4 h / tissue to tissue ratio at 24 h / tissue to tissue ratio at 72 h / tissue to tissue ratio at 120 h: male, NOD.Cg-Rag1^tm1Mom Il2rg^tm1Wjl/SzJ (NRG), iv, total radioactivity; for tissue to tissue ratio at 1 h / tissue uptake at 1 h: 1 h pi; for tissue to tissue ratio at 4 h / tissue uptake at 4 h: 4 h pi; for tissue to tissue ratio at 24 h / tissue uptake at 24 h: 24 h pi; for tissue to tissue ratio at 120 h / tissue uptake at 120 h: 120 h pi; for tissue uptake at 1 h / tissue uptake at 4 h / tissue uptake at 24 h / tissue uptake at 72 h / tissue uptake at 120 h: intravenous
Experimental: SPECT/CT imaging was conducted using an MI Labs (Houten, The Netherlands) U-SPECT-II/CT scanner with a custom-made ultra-high sensitivity big mouse collimator (2 mm pinhole size) following published procedure. The experiments were obtained in accordance with the same protocol established in the PET/CT imaging and ex vivo biodistributions section. The mice were used for SPECT/CT imaging and ex vivo biodistributions studies once the tumors reached a diameter of 5–8 mm. PC-3 tumor-bearing mice were sedated (2.5% isoflurane in O2) and injected with 31.4–36.9 MBq of the ^177Lu-labeled ligand through a lateral caudal tail vein. The mouse was imaged at 1, 4, 24, 72, and 120 h pi. At each time point, a 5 min CT scan was performed with 615 μA and 60 kV parameters for localization and attenuation, followed by two 30 min static SPECT scans in list mode with an energy window centered around 208 keV. The U-SPECT II software was used to reconstruct data, and the images were decay corrected to the time of injection with PMOD v 3.402 (PMOD Technologies GmbH, Fallanden, Switzerland).
For ex vivo biodistribution studies, the mice were injected with ~3–5 MBq of the ^177Lu-labeled ligand (n = 5). At 1, 4, 24, 72, and 120 h post-injection, the mice were anesthetized with 2% isoflurane, euthanized by CO2 inhalation, and the tissues/organs of interest were […] for radioactivity counting. The blocking study was performed at 1 h pi via co-injection of the ^177Lu-labeled ligand with 100 μg of [D-Phe^6,Leu-NHEt^13,des-Met^14]Bombesin(6–14).

[1] = tumor/blood, n = 5, read-out: Tumor/blood uptake ratio
[2] = tumor/kidney, n = 5, read-out: Tumor/kidney uptake ratio
[3] = tumor/muscle, n = 5, read-out: Tumor/muscle uptake ratio
[4] = tumor/pancreas, n = 5, read-out: Tumor/pancreas uptake ratio
[5] = PC-3 tumor, n = 5, read-out: PC-3 tumor uptake
[6] = adrenal glands, n = 5, read-out: Adrenal glands uptake
[7] = blood, n = 5, read-out: Blood uptake
[8] = bone, n = 5, read-out: Bone uptake
[9] = brain, n = 5, read-out: Brain uptake
[10] = fat, n = 5, read-out: Fat uptake
[11] = heart, n = 5, read-out: Heart uptake

tissue to tissue ratio at 1 h (tumor/blood, blocked (100 µg GRPR antagonist co-injected), read-out: Tumor/blood uptake ratio): 3.06 ± 0.99
tissue to tissue ratio at 1 h [1]: 16.9 ± 5.57
tissue to tissue ratio at 4 h [1]: 136 ± 14.7
tissue to tissue ratio at 24 h [1]: 365 ± 251
tissue to tissue ratio at 72 h (tumor/blood, 72 h pi, n = 5, read-out: Tumor/blood uptake ratio): 1300 ± 703
tissue to tissue ratio at 120 h [1]: 529 ± 380
tissue to tissue ratio at 1 h (tumor/kidney, blocked (100 µg GRPR antagonist co-injected), read-out: Tumor/kidney uptake ratio): 0.52 ± 0.08
tissue to tissue ratio at 1 h [2]: 2.17 ± 0.49
tissue to tissue ratio at 4 h [2]: 1.61 ± 0.3
tissue to tissue ratio at 24 h [2]: 1.34 ± 0.38
tissue to tissue ratio at 72 h (tumor/kidney, 72 h pi, n = 5, read-out: Tumor/kidney uptake ratio): 2.17 ± 0.33
tissue to tissue ratio at 120 h [2]: 2.77 ± 0.65
tissue to tissue ratio at 1 h (tumor/muscle, blocked (100 µg GRPR antagonist co-injected), read-out: Tumor/muscle uptake ratio): 14.6 ± 2.5
tissue to tissue ratio at 1 h [3]: 90 ± 17.3
tissue to tissue ratio at 4 h [3]: 275 ± 35
tissue to tissue ratio at 24 h [3]: 149 ± 50.5
tissue to tissue ratio at 72 h (tumor/muscle, 72 h pi, n = 5, read-out: Tumor/muscle uptake ratio): 356 ± 110
tissue to tissue ratio at 120 h [3]: 214 ± 77.9
tissue to tissue ratio at 1 h (tumor/pancreas, blocked (100 µg GRPR antagonist co-injected), read-out: Tumor/pancreas uptake ratio): 6.53 ± 0.76
tissue to tissue ratio at 1 h [4]: 14.8 ± 2.39
tissue to tissue ratio at 4 h [4]: 48.1 ± 11.3
tissue to tissue ratio at 24 h [4]: 26.5 ± 4.82
tissue to tissue ratio at 72 h (tumor/pancreas, 72 h pi, n = 5, read-out: Tumor/pancreas uptake ratio): 46.8 ± 13.9
tissue to tissue ratio at 120 h [4]: 51.5 ± 13.9
tissue uptake at 1 h (PC-3 tumor, 100 ug, blocked (100 µg GRPR antagonist co-injected), read-out: PC-3 tumor uptake): 2.02 ± 0.44 %ID/g
tissue uptake at 1 h [5]: 5.67 ± 1.02 %ID/g
tissue uptake at 4 h [5]: 2.96 ± 0.37 %ID/g
tissue uptake at 24 h [5]: 1.12 ± 0.2 %ID/g
tissue uptake at 72 h (PC-3 tumor, 72 h pi, n = 5, read-out: PC-3 tumor uptake): 0.55 ± 0.15 %ID/g
tissue uptake at 120 h [5]: 0.32 ± 0.06 %ID/g
tissue uptake at 72 h (PC-3 tumor, after 72 h pi, read-out: tumor uptake): < 1 %ID/g
tissue uptake at 1 h (adrenal glands, 100 ug, blocked (100 µg GRPR antagonist co-injected), read-out: Adrenal glands uptake): 0.23 ± 0.06 %ID/g
tissue uptake at 1 h [6]: 0.18 ± 0.05 %ID/g
tissue uptake at 4 h [6]: 0.17 ± 0.09 %ID/g
tissue uptake at 24 h [6]: 0.12 ± 0.05 %ID/g
tissue uptake at 72 h (adrenal glands, 72 h pi, n = 5, read-out: Adrenal glands uptake): 0.02 ± 0.01 %ID/g
tissue uptake at 120 h [6]: 0.03 ± 0.02 %ID/g
tissue uptake at 1 h (blood, 100 ug, blocked (100 µg GRPR antagonist co-injected), read-out: Blood uptake): 0.74 ± 0.18 %ID/g
tissue uptake at 1 h [7]: 0.37 ± 0.14 %ID/g
tissue uptake at 4 h [7]: 0.02 %ID/g
tissue uptake at 24 h [7]: 0.01 ± 0.01 %ID/g
tissue uptake at 1 h (bone, 100 ug, blocked (100 µg GRPR antagonist co-injected), read-out: Bone uptake): 0.07 ± 0.04 %ID/g
tissue uptake at 1 h [8]: 0.06 ± 0.01 %ID/g
tissue uptake at 4 h [8]: 0.01 %ID/g
tissue uptake at 24 h [8]: 0.02 ± 0.01 %ID/g
tissue uptake at 72 h (bone, 72 h pi, n = 5, read-out: Bone uptake): 0.01 ± 0.01 %ID/g
tissue uptake at 120 h [8]: 0.01 ± 0.01 %ID/g
tissue uptake at 1 h (brain, 100 ug, blocked (100 µg GRPR antagonist co-injected), read-out: Brain uptake): 0.02 ± 0.01 %ID/g
tissue uptake at 1 h [9]: 0.02 %ID/g
tissue uptake at 4 h [9]: 0.01 %ID/g
tissue uptake at 1 h (fat, 100 ug, blocked (100 µg GRPR antagonist co-injected), read-out: Fat uptake): 0.09 ± 0.04 %ID/g
tissue uptake at 1 h [10]: 0.04 ± 0.02 %ID/g
tissue uptake at 4 h [10]: 0.01 ± 0.01 %ID/g
tissue uptake at 24 h [10]: 0.01 %ID/g
tissue uptake at 1 h (heart, 100 ug, blocked (100 µg GRPR antagonist co-injected), read-out: Heart uptake): 0.23 ± 0.05 %ID/g
tissue uptake at 1 h [11]: 0.13 ± 0.05 %ID/g
tissue uptake at 4 h [11]: 0.03 ± 0.01 %ID/g
tissue uptake at 24 h [11]: 0.02 ± 0.01 %ID/g
tissue uptake at 72 h (heart, 72 h pi, n = 5, read-out: Heart uptake): 0.01 %ID/g
SMILES: CC(C)C[C@@H](CN1CC(F)(F)C[C@H]1C(N)=O)NC(=O)[C@H](Cc1c[nH]cn1)NC(=O)CN(C)C(=O)[C@@H](NC(=O)[C@H](C)NC(=O)[C@H](Cc1c[nH]c2ccccc12)NC(=O)[C@H](CCC(N)=O)NC(=O)[C@@H](Cc1ccccc1)NC(=O)CN1CCC(NC(=O)CN2CCN(CC(=O)O)CCN(CC(=O)O)CCN(CC(=O)O)CC2)CC1)C(C)C [[^177Lu]Lu-LW02080, metal not drawn]
